Like-named read-outs stand apart in the source and are kept apart here.
Experiments:
[1] = test system: MCF7, hormone-independent human breast cancer cells; experiment: Proliferation assay, MCF7; assay type: cell-based; conditions: MCF7, 96 h, 4 days incubation, crystal violet
From the text: (§1) Cultivated human tumor cells (MCF7, hormone-independent human breast cancer cells, related to ATCC HTB22; NCI-H460, human non-small-cell lung cancer cells, ATCC HTB-177, HCT 116, human colon cancer cells, ATCC CCL-247; DU 145, hormone-independent human prostate cancer cells, ATCC HTB-81; MaTu-MDR, hormone-independent, multiple pharmaceutical agent-resistant human breast cancer cells, EPO-GmbH, Berlin) were flattened out at a density of about 5000 cells/measuring point, depending on the growth rate of the respective cells, in a 96-well multititer plate in 200 μl of the corresponding growth medium. After 24 hours, the cells of one plate (zero-point plate) were colored with crystal violet (see below), while the medium of the other plates was replaced by fresh culture medium (200 μl), to which the test substances were added in various concentrations (0 μm, as well as in the range of 0.01-30 μm; the final concentration of the solvent dimethyl sulfoxide was 0.5%). The cells were incubated for 4 days in the presence of test substances. The cell proliferation was determined by coloring the cells with crystal violet: the cells were fixed by adding 20 μl/measuring point of an 11% glutaric aldehyde solution for 15 minutes at room temperature. After three washing cycles of the fixed cells with water, the plates were dried at room temperature. The cells were colored by adding 100 μl/measuring point of a 0.1% crystal violet solution (the pH was set at 3 by adding acetic acid). After three washing cycles of the colored cells with water, the plates were dried at room temperature. The dye was dissolved by adding 100 μl/measuring point of a 10% acetic acid solution. The extinction was determined by photometry at a wavelength of 595 nm. The change of cell growth, in percent, was calculated by normalization of the measured values to the extinction values of the zero-point plate (=0%) and the extinction of the untreated (0 μm) cells (=100%).

[2] = test system: NCI-H460, human non-small-cell lung cancer cells; experiment: Proliferation assay, H460; assay type: cell-based; conditions: NCI-H460, 96 h, 4 days incubation, crystal violet
From the text: as §1

[3] = test system: DU 145, hormone-independent human prostate cancer cells; experiment: Proliferation assay, DU145; assay type: cell-based; conditions: DU-145, 96 h, 4 days incubation, crystal violet
From the text: as §1

[4] = test system: MaTu-ADR; experiment: Proliferation assay, MaTu-ADR; assay type: cell-based; conditions: Homo sapiens, 96 h, MaTu-ADR cells, 4 days incubation, crystal violet
From the text: as §1

[5] = target: T1, CDK2/CycE (Homo sapiens, UniProt P24941); experiment: CDK2/CycE Kinase Assay; assay type: biochemical; conditions: histone IIIS substrate, 33P-ATP, 15 minutes at 22° C.
T1 construct: GST; purchased ProQinase GmbH, Freiburg; host or cells: baculovirus-infected insect cells (Sf9)
Method: Recombinant CDK2- and CycE-GST-fusion proteins, purified from baculovirus-infected insect cells (Sf9), were purchased by ProQinase GmbH, Freiburg. Histone IIIs, which was used as a kinase substrate, was purchased by the Sigma Company.
CDK2/CycE (50 ng/measuring point) was incubated for 15 minutes at 22° C. in the presence of various concentrations of test substances (0 μm, as well as within the range of 0.01-100 μm) in assay buffer [50 mmol of tris/HCl, pH 8.0, 10 mmol of MgCl2, 0.1 mmol of Na ortho-vanadate, 1.0 mmol of dithiothreitol, 0.5 μm of adenosine triphosphate (ATP), 10 μg/measuring point of histone IIIS, 0.2 μCi/measuring point of ^33P-gamma ATP, 0.05% NP40, 12.5% dimethyl sulfoxide]. The reaction was stopped by adding EDTA solution (250 mmol, pH 8.0, 14 μl/measuring point).
(§2) From each reaction batch, 10 μl was applied to P30 filter strips (Wallac Company), and non-incorporated ^33P-ATP was removed by subjecting the filter strips to three washing cycles for 10 minutes each in 0.5% phosphoric acid. After the filter strips were dried for one hour at 70° C., the filter strips were covered with scintillator strips (MeltiLex™ A, Wallac Company) and baked for one hour at 90° C. The amount of incorporated ^33P (substrate phosphorylation) was determined by scintillation measurement in a gamma-radiation measuring device (Wallac).

[6] = target: T2, CDK1/CycB (Homo sapiens, UniProt P06493); experiment: CDK1/CycB Kinase Assay; assay type: biochemical; conditions: histone IIIS substrate, 33P-ATP, 15 minutes at 22° C.
T2 construct: GST; purchased ProQinase GmbH, Freiburg; host or cells: baculovirus-infected insect cells (Sf9)
T2 sequence (P06493 whole entry): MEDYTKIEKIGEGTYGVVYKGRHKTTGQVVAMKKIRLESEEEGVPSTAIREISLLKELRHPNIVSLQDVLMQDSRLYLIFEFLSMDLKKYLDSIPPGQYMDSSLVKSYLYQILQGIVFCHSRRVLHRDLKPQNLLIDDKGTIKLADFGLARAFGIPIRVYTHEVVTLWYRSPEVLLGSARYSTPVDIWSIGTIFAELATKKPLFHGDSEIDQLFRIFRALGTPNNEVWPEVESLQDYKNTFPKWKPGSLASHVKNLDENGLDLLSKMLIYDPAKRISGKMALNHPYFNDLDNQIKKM
T2 sequence (P14635 whole entry partner): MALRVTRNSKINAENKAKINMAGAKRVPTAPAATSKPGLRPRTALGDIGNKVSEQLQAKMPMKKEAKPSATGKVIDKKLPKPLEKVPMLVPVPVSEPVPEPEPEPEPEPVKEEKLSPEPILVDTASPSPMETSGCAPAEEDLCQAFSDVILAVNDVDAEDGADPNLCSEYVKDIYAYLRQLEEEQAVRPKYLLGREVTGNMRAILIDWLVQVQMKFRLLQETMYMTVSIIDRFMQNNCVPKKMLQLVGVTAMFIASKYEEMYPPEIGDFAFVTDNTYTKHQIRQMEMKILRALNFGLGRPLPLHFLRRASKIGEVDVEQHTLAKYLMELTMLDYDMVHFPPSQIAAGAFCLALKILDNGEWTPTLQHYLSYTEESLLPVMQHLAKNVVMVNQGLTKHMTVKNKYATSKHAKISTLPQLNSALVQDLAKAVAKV
Method: Recombinant CDK1- and CycB-GST-fusion proteins, purified from baculovirus-infected insect cells (Sf9), were purchased from ProQinase GmbH, Freiburg. Histone IIIS, used as a kinase substrate, is available commercially from the Sigma Company.
The reaction was stopped by adding EDTA solution (250 mmol, pH 8.0, 14 μl/measuring point).
as §2, with “33P-ATP” for “^33P-ATP”, “33P” for “^33P”

[7] = target: T3, VEGF receptor tyrosine kinase-2 (Homo sapiens, UniProt P35968); experiment: VEGF Receptor-2 Kinase Assay; assay type: biochemical; conditions: 33P-ATP, 10 minutes at 22° C.
T3 construct: GST; made in house; host or cells: baculovirus-infected insect cells (Sf9)
T3 sequence (P35968 20-1356): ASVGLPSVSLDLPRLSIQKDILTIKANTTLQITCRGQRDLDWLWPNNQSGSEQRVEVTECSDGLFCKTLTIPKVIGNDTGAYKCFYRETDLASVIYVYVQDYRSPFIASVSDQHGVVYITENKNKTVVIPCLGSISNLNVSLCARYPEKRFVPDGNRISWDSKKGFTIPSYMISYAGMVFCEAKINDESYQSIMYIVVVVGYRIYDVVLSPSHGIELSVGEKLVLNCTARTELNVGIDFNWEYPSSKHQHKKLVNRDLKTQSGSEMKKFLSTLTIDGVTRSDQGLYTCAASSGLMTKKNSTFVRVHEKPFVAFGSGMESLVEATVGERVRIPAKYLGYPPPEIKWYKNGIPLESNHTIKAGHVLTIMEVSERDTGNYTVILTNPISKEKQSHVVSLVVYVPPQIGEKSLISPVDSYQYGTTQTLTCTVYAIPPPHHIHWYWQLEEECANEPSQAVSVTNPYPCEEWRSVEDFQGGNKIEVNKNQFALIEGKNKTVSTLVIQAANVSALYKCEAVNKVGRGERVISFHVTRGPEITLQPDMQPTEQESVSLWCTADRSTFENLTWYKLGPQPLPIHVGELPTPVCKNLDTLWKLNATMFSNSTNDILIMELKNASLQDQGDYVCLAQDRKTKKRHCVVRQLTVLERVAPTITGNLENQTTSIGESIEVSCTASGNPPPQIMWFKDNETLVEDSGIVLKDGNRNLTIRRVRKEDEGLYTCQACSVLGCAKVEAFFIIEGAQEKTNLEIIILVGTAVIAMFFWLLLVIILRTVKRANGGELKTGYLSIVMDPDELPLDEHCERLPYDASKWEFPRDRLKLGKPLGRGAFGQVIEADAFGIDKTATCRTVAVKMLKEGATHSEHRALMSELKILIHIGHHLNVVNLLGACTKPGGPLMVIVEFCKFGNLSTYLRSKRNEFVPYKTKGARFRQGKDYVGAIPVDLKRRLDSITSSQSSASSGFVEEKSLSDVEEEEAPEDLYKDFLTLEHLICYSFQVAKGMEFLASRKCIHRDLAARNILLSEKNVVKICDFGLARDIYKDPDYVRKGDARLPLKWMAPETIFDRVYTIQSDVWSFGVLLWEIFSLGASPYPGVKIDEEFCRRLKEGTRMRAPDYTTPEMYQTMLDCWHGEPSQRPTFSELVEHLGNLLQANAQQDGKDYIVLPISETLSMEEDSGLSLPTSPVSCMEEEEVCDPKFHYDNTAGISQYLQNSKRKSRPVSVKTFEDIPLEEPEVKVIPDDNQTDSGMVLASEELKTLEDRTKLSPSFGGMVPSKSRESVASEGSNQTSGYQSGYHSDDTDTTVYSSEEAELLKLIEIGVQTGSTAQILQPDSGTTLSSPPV
Method: VEGF Receptor-2 Kinase Assay
Recombinant VEGF receptor tyrosine kinase-2 was purified as a GST fusion protein from baculovirus-infected insect cells (Sf9). Poly-(Glu4Tyr), which was used as a kinase substrate, was purchased by the Sigma Company.
VEGF receptor tyrosine kinase (90 ng/measuring point) was incubated for 10 minutes at 22° C. in the presence of various concentrations of test substances (0 μm, as well as within the range of 0.001-30 μm) in 30 μl of assay buffer [40 mmol of Tris/HCl, […], 10 mmol of MgCl2, 1 mmol of MnCl2, 3 μmol of Na ortho-vanadate, 1.0 mmol of dithiothreitol, 8 μmol of adenosine trisphosphate (ATP), 27 μg/measuring point of poly-(Glu4Tyr), 0.2 μCi/measuring point of 33P-gamma ATP, 1% dimethyl sulfoxide]. The reaction was stopped by adding EDTA solution (250 mmol, pH 7.0, 10 μl/measuring point).
as §2, with “33P-ATP” for “^33P-ATP”, “33P” for “^33P”

[8] = poly-(Glu4Tyr) substrate, read-out: VEGF-R2 IC50

Row | IC50 [1] | IC50 [2] | IC50 [3] | IC50 [5] | IC50 [6] | IC50 [7, 8] | SMILES | IC50 [4] | IC50 ([7]; VEGF-R2 IC50, poly-(Glu4Tyr) substrate)
1 | 100 nM | < 100 nM | < 100 nM | 25 nM | 44 nM |  | C[C@@H](Nc1nc(Nc2ccc(S(=N)(=O)C3CCCC3)cc2)ncc1Br)C(C)(C)O (mixture of isomers) [Example 1.11, (RS)-S-[4-({5-bromo-4-[(R)-(2-hydroxy-1,2-dimethylpropyl)amino]pyrimidin-2-yl}amino)phenyl]-S-cyclopentylsulfoximide] | 100 nM | 
2 | 140 nM | < 100 nM | < 100 nM | 8 nM | 14 nM |  | C[C@@H](Nc1nc(Nc2ccc(S(=N)(=O)C3CC3)cc2)ncc1Br)C(C)(C)O (mixture of isomers) [Example 1.6, (RS)-S-[4-({5-bromo-4-[(R)-(2-hydroxy-1,2-dimethylpropyl)amino]pyrimidin-2-yl}amino)phenyl]-S-cyclopropylsulfoximide] | < 100 nM | 
3 | 300 nM | 400 nM | 190 nM |  | 160 nM |  | CS(=N)(=O)c1ccc(Nc2ncc(Br)c(Nc3ccccc3)n2)cc1 (racemic) [Example 2.3, (RS)-S-(4-{[5-bromo-4-(phenylamino)pyrimidin-2-yl]amino}phenyl)-S-methyl sulfoximide] | 120 nM | 
4 |  | 30 nM | 40 nM |  |  |  | C[C@@H](O)[C@@H](C)Nc1nc(Nc2ccc(S(C)(=N)=O)cc2)ncc1Br (single isomer, unassigned) [Example 1.2] | 40 nM | 
5 | 80 nM | 20 nM | 20 nM | 18 nM | 22 nM |  | CCC(Sc1nc(Nc2ccc(S(C)(=N)=O)cc2)ncc1Br)C(C)O (racemic) [Example 3.6, (RS)-S-[4-({5-bromo-4-[(RS,RS)-(1-ethyl-2-hydroxypropyl)sulfanyl]pyrimidin-2-yl}amino)phenyl]-S-methyl sulfoximide] | 20 nM | 
6 | 80 nM | 70 nM | 90 nM |  |  |  | C[C@@H](Nc1nc(Nc2ccc(S(C)(=N)=O)cc2)ncc1Br)C(C)(C)O (mixture of isomers) [Example 1.41, (RS)-S-[4-({5-bromo-4-[(R)-(2-hydroxy-1,2-dimethylpropyl)amino]pyrimidin-2-yl}amino)phenyl]-S-methyl sulfoximide] | 70 nM | 
7 | < 100 nM | 70 nM | 130 nM |  | 5 nM | 150 nM | COc1cc(Nc2ncc(Br)c(O[C@H](C)[C@@H](C)O)n2)ccc1S(C)(=N)=O (mixture of isomers) [Example 1.24, (RS)-S-[4-({5-bromo-4-[(1R,2R)-2-hydroxy-1-methylpropoxy]pyrimidin-2-yl}amino)-2-methoxyphenyl]-S-methyl sulfoximide] | 80 nM | 
8 |  | 50 nM | 50 nM |  | 5 nM | 26 nM | CCS(=N)(=O)c1ccc(Nc2ncc(Br)c(N[C@H](C)[C@@H](C)O)n2)cc1 (mixture of isomers) [Example 1.51, (RS)-S-[4-({5-bromo-4-[(1R,2R)-(2-hydroxy-1-methylpropyl)amino]pyrimidin-2-yl}amino)phenyl]-S-ethyl sulfoximide] | 60 nM | 
9 |  | 300 nM | 400 nM |  |  | 270 nM | CCS(=N)(=O)c1ccc(Nc2ncc(Br)c(N[C@H](COC)[C@@H](C)O)n2)cc1 (mixture of isomers) [Example 1.48, (RS)-S-{4-[(5-bromo-4-{[(1R,2R)-2-hydroxy-1-(methoxymethyl)-propyl]amino}pyrimidin-2-yl)amino]phenyl}-S-ethyl sulfoximide] |  | 
10 |  | 120 nM | 200 nM | 7 nM | 14 nM |  | CN=S(C)(=O)c1ccc(Nc2ncc(Br)c(N[C@H](C)[C@@H](C)O)n2)cc1 (mixture of isomers) [Example 1.28, (RS)-S-[4-({5-bromo-4-[(1R,2R)-(2-hydroxy-1-methylpropyl)amino]pyrimidin-2-yl}amino)phenyl]-N,S-dimethyl-sulfoximide] | 200 nM | 
11 | 90 nM | 100 nM |  |  | 7 nM | 69 nM | C[C@@H](Nc1nc(Nc2ccc(S(=N)(=O)CCO)cc2)ncc1Br)C(C)(C)O (single isomer, unassigned) [Example 1.14] |  | 
12 | 900 nM |  |  | 63 nM | 200 nM | 89 nM | CCOc1nc(Nc2ccc(S(=N)(=O)CC)cc2)ncc1Br (racemic) [Example 1.63, (RS)-S-{4-[(5-bromo-4-ethoxypyrimidin-2-yl)amino]phenyl}-S-ethyl sulfoximide] |  | 

Row | SMILES | IC50 [1] | IC50 [2] | IC50 [3] | IC50 [5] | IC50 [6] | IC50 [7, 8] | IC50 [4] | IC50 ([7]; VEGF-R2 IC50, poly-(Glu4Tyr) substrate)
13 | C[C@H](CO)Nc1nc(Nc2ccc(S(C)(=O)=NS(=O)(=O)CC[Si](C)(C)C)cc2)ncc1Br (mixture of isomers) [Example 2.1, (RS)-S-[4-({5-bromo-4-[(R)-(2-hydroxy-1-methylethyl)amino]pyrimidin-2-yl}amino)phenyl]-S-methyl-N-[2-(trimethylsilyl)ethylsulfonyl]sulfoximide] | 900 nM |  |  | 390 nM |  | 74 nM |  | 
14 | C[C@H](CO)Nc1nc(Nc2ccc(S(=O)(CC3CC3)=NS(=O)(=O)CC[Si](C)(C)C)cc2)ncc1Br (mixture of isomers) [Example 1.7, (RS)-S-[4-({5-bromo-4-[(R)-(2-hydroxy-1-methylethyl)amino]pyrimidin-2-yl}amino)phenyl]-S-(cyclopropylmethyl)-N-[2-(trimethylsilyl)ethylsulfonyl]sulfoximide] | 1100 nM |  |  | > 1000 nM | > 1000 nM |  |  | 240 nM
